{
  "source": "patent US7511078B2",
  "about": "“Antiallergic agents, drugs, foods, drinks or cosmetics containing them and process for producing the same” (Kikkoman Corporation, priority 2001, dated 2009)",
  "key": {"rat fat cells": {"test_system": "rat fat cells", "test": "Histamine-release inhibiting activity from rat fat cells (Compound 48/80 induced)", "assay_type": "cell-based", "conditions": "for histamine-release inhibiting activity (FIG. 7): sample solutions 100 μg/ml each; for IC50: 50% inhibition rate; for inhibition at 250 µg/mL: sample concentration 250 μg/ml; for inhibition at 25 µg/mL: sample concentration 25 μg/ml; for inhibition at 75 µg/mL: sample concentration 75 μg/ml; for activity relative to the known agents (caffeic acid, ketotifen fumarate): from IC50 values of histamine-release inhibition", "procedure": "Cells were collected from the abdominal cavity of rats immediately after being sacrificed by exsanguinations using heparin-containing fat cell buffer (composition: 0.150 M NaCl, 3.7 mM KCl, 3.0 mM Na2HPO4, 3.5 mM KH2PO4, 0.9 mM CaCl2, 5.6 mM D-glucose, 0.1% (w/v) gelatin) (Lectures on Experimental Biopharmacology, Vol.12, Inflammations and Allergies II, edited by Kazuo Ohuchi, published by Hirokawa Publishing, 1993, page 372). After washing the cells, the above heparin-containing fat cell buffer was added to a concentration of 2.0×10^5 cells/ml, and this was used as the cell suspension.\nMeanwhile, 3 mg of tomato extract were dissolved in 1 ml of 1% dimethyl sulfoxide (DMSO) and used as a sample solution. Further, the naringenin chalcone obtained in Example 1-3, and ketotifen fumarate, which is known to have an antiallergic activity, were respectively dissolved in the heparin-containing fat cell buffer containing 0.15% DMSO (final concentration), and the tricaffeoylquinic acid obtained in Example 1-4, and caffeic acid, which is known to have an antiallergic activity, were respectively dissolved in heparin-containing fat cell buffer containing 0.08% ethanol (final concentration), and each of these were used as sample solutions having concentrations of 25-250 μg/ml.\n80 μl of the above cell suspension were added to 20 μl of the sample solution and the mixture was incubated at 37° C. for 10 minutes. Subsequently, 20 μl of Compound 48/80 (5 μg/ml) were added as histamine-degranulation inducer, and the mixture was incubated for 10 minutes. After the mixture was cooled with ice, it was separated by centrifugation (1,500×g, 5 minutes, 4° C.), and the free histamine in the supernatant was measured by high-performance liquid chromatography equipped with a fluorescent detector.\nHistamine-release inhibiting activity was calculated from the measured histamine values using calculation formula (1) shown below. Histamine-release inhibition rate (%)=(1−(S−B)/(C−B))×100 (1) • B: Amount of histamine released from control cells in the absence of inducer • C: Amount of histamine released from cells in the presence of inducer • S: Amount of histamine released from cells in the presence of test sample and inducer"}, "[1]": {"test": "Cytotoxicity test (Trypan Blue, rat abdominal cavity cells)", "assay_type": "cell-based", "conditions": "various concentrations, 37° C., 0-120 minutes", "procedure": "To 80 μl of cell suspension (1-2×10^6 cells/ml) prepared in the same manner as in Example 2 were added 20 μl of sample solutions (Tomato Extract 1, naringenin chalcone, tricaffeoylquinic acid or dicaffeoylsuccinylquinic acid obtained in Example 1) with various concentrations, and the mixture was cultured at 37° C. Each of 10 μl aliquots was taken after 0, 10, 20, 60 and 120 minutes from the start of culturing, and each aliquot was added to 20 μl of 0.4% Trypan Blue prepared in advance. Judging those cells that were stained with blue pigment to be dead cells, the number of cells was counted under microscopic examination using a hemocytometer. Viability (percentage of viable cells to the total number of cells) and the number of viable cells were measured."}, "rat macrophages": {"test_system": "rat macrophages", "test": "Leukotriene B4 release inhibiting activity from rat macrophages (opsonized zymosan, ELISA)", "assay_type": "cell-based", "conditions": "Macrophage, read-out: Inhibition rate (%); for inhibition at 5 µg/mL: sample concentration 5 μg/ml; for inhibition at 50 µg/mL: sample concentration 50 μg/ml; for inhibition at 500 µg/mL: sample concentration 500 μg/ml", "procedure": "Soluble starch (Wako, grade 1) and Bactopeptone (Difco) were suspended in physiological saline (0.9% NaCl, Ohtsuka Pharmaceutical, Co.) to have a concentration of 5% each. After sterilizing with an autoclave (121° C., 20 minutes), the suspension was cooled down to room temperature. The suspension was administered by injection into rat abdominal cavity in an amount of 5 mL per 100 g of body weight under ether anesthesia (using a 21G needle).\nFour days later, the rats were sacrificed by exsanguination from the carotid artery under ether anesthesia. After adequately exsanguinating the rats, the rats were sprayed with ethanol and placed in a clean bench. 25 mL of CMF-HBSS (Ca, Mg free HBSS) were injected into the abdominal cavity followed by adequately rubbing the abdomen. The rats were laparotimized using sterilized instruments, and the solution within the abdominal cavity was collected. The collected solution was filtered using three layers of gauze. The abdominal cavity was further washed with 25 mL of CMF-HBSS (Ca, Mg free HBSS), and the solution was collected in the same manner. The collected cells were washed three times with ice-cold 0.1% BSA-PBS, suspended in 10% FBS-RPMI1640 medium. The cell suspension was dispersed in a 6 cm Petri dish to have 4.5×10^6 cells/3 mL/dish, and incubated for 2 hours in an incubator kept at 5% CO2 and 37° C. Subsequently, the supernatant was discarded, the Petri dish was washed three times with PBS to rinse off non-adherent cells, and the cells adhered onto inside of the Petri dish were used as macrophages. After the macrophages were pre-incubated for 20 minutes in 1% FBS-RPMI1640 medium, zymosan opsoninized using rat serum was added thereto, and the mixture was cultured in an incubator kept at 5% CO2 and 37° C. for a predetermined period of time. Incidentally, samples were added 30 minutes before addition of zymosan. After completion of culture, supernatant from the culture was recovered and the amount of LTB4 in the supernatant was measured using an ELISA kit (Leukotriene B4 EIA Kit, Cayman). Activity of inhibiting release of leukotriene B4 was calculated from the measured leukotriene B4 values using the following calculation formula (2): Leukotriene B4 release inhibition rate (%)=(1−(S−B)/(C−B))×100 (2) • B: Amount of leukotriene B4 released from control cells in the absence of inducer • C: Amount of leukotriene B4 released from cells in the presence of inducer • S: Amount of leukotriene B4 released from cells in the presence of test sample and inducer"}, "mouse auricular edema": {"test_system": "mouse auricular edema", "test": "Anaphylaxis inhibitory action in mouse auricular edema (anti-TNP-IgE / picryl chloride)", "assay_type": "in vivo", "procedure": "C3H/Hecrj, 7-week-old female mice having body weights of 15-20 g were used in groups of five animals each. Tomato Extract 1 was suspended in 0.5% CMC-Na (sodium carboxymethyl cellulose) solution, while 0.5% CMC-Na was administered as a control. The samples were administered six times over the course of five days, and measurements were made on day 5. The animals were dosed once a day from day 1 through day 4, and on day 5, they were orally dosed twice, 4 hours before and 30 minutes after administration of anti-TNP-IgE solution. The dose of Tomato Extract 1 was 0.16 mg, 0.8 mg or 4 mg per 1 kg of mouse body weight.\n0.2 ml of 1% anti-TNP-IgE solution was administered from the vein of eye ground, and 30 minutes later, sample solution was orally administered. Further 30 minutes later, thickness of the left and right ears were measured. Immediately after that, 10 μl of 0.8% acetone-olive oil (1:1) solution of picryl chloride was applied to each ear. The thickness of the left and right ears of the mice were measured two hours after application, and the difference in ear thickness before and after application was taken to represent edema caused by anaphylaxis. A test of significance was carried out using the Student's t-test.\nMeasurement was made in the same manner as in (1) above, except for administration method. Samples were administered six times over the course of five days, and measurement was made on day 5. The animals were dosed once a day from day 1 through day 4, and on day 5, they were orally dosed twice, 4 hours before and 30 minutes after administration of anti-TNP-IgE solution. The dose of tricaffeoylquinic acid was 0.16 mg, 0.8 mg, 4 mg or 20 mg per kilogram of mouse body weight."}, "[2]": {"conditions": "Rattus norvegicus, histamine release"}, "[3]": {"conditions": "Rattus norvegicus, histamine release, read-out: Inhibition rate (%)"}},
  "note": "Counter-ions that a name gives are not always drawn.",
  "data": [
    {"smiles": "O=C(O)[C@]1(O)C[C@@H](O)[C@@H](O)[C@H](O)C1", "note": "[quinic acid, reference compound]", "values": [
      {"measurement": "histamine-release inhibiting activity (FIG. 7)", "setting": "rat fat cells", "value": "did not inhibit histamine-release"}
    ]},
    {"smiles": "O=C(O)/C=C/c1ccc(O)c(O)c1", "note": "[Caffeic acid, caffeic acid, reference compound]", "values": [
      {"measurement": "IC50", "setting": "rat fat cells; [2]", "value": "~250", "unit": "µg/mL"},
      {"measurement": "inhibition at 250 µg/mL", "setting": "rat fat cells; [3]", "value": 50.1, "unit": "%"},
      {"measurement": "histamine-release inhibiting activity (FIG. 7)", "setting": "rat fat cells", "value": "more potent in the order of caffeic acid followed by dicaffeoylquinic acid"}
    ]},
    {"smiles": "CN1CCC(=C2c3ccccc3CC(=O)c3sccc32)CC1", "note": "[Ketotifen fumarate, ketotifen fumarate, reference compound]", "values": [
      {"measurement": "IC50", "setting": "rat fat cells; [2]", "value": "~250", "unit": "µg/mL"},
      {"measurement": "inhibition at 25 µg/mL", "setting": "rat fat cells; [3]", "value": 0, "unit": "%"},
      {"measurement": "inhibition at 75 µg/mL", "setting": "rat fat cells; [3]", "value": 13.1, "unit": "%"},
      {"measurement": "inhibition at 250 µg/mL", "setting": "rat fat cells; [3]", "value": 49.4, "unit": "%"}
    ]},
    {"smiles": "O=C(/C=C/c1ccc(O)cc1)c1c(O)cc(O)cc1O", "note": "[Naringenin chalcone, 2′,4′,6′,4-tetrahydroxy-chalcone]", "values": [
      {"measurement": "cytotoxicity (viability and number of viable cells)", "setting": "[1]", "value": "no cytotoxicity was observed"},
      {"measurement": "inhibition at 5 µg/mL", "setting": "rat macrophages", "value": 62.3, "unit": "%"},
      {"measurement": "inhibition at 50 µg/mL", "setting": "rat macrophages", "value": 93.5, "unit": "%"},
      {"measurement": "inhibition at 500 µg/mL", "setting": "rat macrophages", "value": 98.2, "unit": "%"},
      {"measurement": "IC50", "setting": "rat fat cells; [2]", "value": "~70", "unit": "µg/mL"},
      {"measurement": "inhibition at 25 µg/mL", "setting": "rat fat cells; [3]", "value": 28.2, "unit": "%"},
      {"measurement": "inhibition at 50 µg/mL", "setting": "rat fat cells; Rattus norvegicus, histamine release, sample concentration 50 μg/ml, read-out: Inhibition rate (%)", "value": 37.6, "unit": "%"},
      {"measurement": "inhibition at 75 µg/mL", "setting": "rat fat cells; [3]", "value": 53.9, "unit": "%"},
      {"measurement": "inhibition at 200 µg/mL", "setting": "rat fat cells; Rattus norvegicus, histamine release, sample concentration 200 μg/ml, read-out: Inhibition rate (%)", "value": 82, "unit": "%"},
      {"measurement": "activity relative to the known agents (caffeic acid, ketotifen fumarate)", "setting": "rat fat cells", "value": "roughly 3.5 times"},
      {"measurement": "anaphylaxis inhibitory action (FIG. 8)", "setting": "mouse auricular edema; doses 0.0064, 0.032, 0.16 or 0.8 mg per kg", "value": "exhibited an anaphylaxis inhibitory action dose-dependently"}
    ]},
    {"smiles": "O=C(/C=C/c1ccc(O)c(O)c1)O[C@@H]1C[C@](O)(C(=O)O)C[C@@H](O)[C@H]1O", "note": "[chlorogenic acid, reference compound]", "values": [
      {"measurement": "histamine-release inhibiting activity (FIG. 7)", "setting": "rat fat cells", "value": "did not inhibit histamine-release"}
    ]},
    {"smiles": "O=C(/C=C/c1ccc(O)c(O)c1)OC1CC(O)(C(=O)O)CC(OC(=O)/C=C/c2ccc(O)c(O)c2)C1OC(=O)/C=C/c1ccc(O)c(O)c1", "note": "(stereo not drawn) [Tricaffeoylquinic acid, 3,4,5-tricaffeoylquinic acid]", "values": [
      {"measurement": "cytotoxicity (viability and number of viable cells)", "setting": "[1]", "value": "no cytotoxicity was observed"},
      {"measurement": "inhibition at 5 µg/mL", "setting": "rat macrophages", "value": 33.5, "unit": "%"},
      {"measurement": "inhibition at 50 µg/mL", "setting": "rat macrophages", "value": 65.8, "unit": "%"},
      {"measurement": "inhibition at 500 µg/mL", "setting": "rat macrophages", "value": 69.7, "unit": "%"},
      {"measurement": "IC50", "setting": "rat fat cells; [2]", "value": "~25", "unit": "µg/mL"},
      {"measurement": "inhibition at 25 µg/mL", "setting": "rat fat cells; [3]", "value": 54.1, "unit": "%"},
      {"measurement": "inhibition at 75 µg/mL", "setting": "rat fat cells; [3]", "value": 93.2, "unit": "%"},
      {"measurement": "activity relative to the known agents (caffeic acid, ketotifen fumarate)", "setting": "rat fat cells", "value": "roughly 10 times"},
      {"measurement": "histamine-release inhibiting activity (FIG. 7)", "setting": "rat fat cells", "value": "exhibited a significantly high activity"},
      {"measurement": "anaphylaxis inhibitory action (FIG. 9)", "setting": "mouse auricular edema; dose 4 mg per kg", "value": "exhibited an anaphylaxis inhibitory action"},
      {"measurement": "anaphylaxis inhibitory action (FIG. 10)", "setting": "mouse auricular edema; orally administered, 0.16, 0.8, 4 or 20 mg per kg, six doses over five days", "value": "exhibited an anaphylaxis inhibitory action"}
    ]},
    {"smiles": "O=C(O)CCC(=O)OC1C(OC(=O)/C=C/c2ccc(O)c(O)c2)CC(O)(C(=O)O)CC1OC(=O)/C=C/c1ccc(O)c(O)c1", "note": "(stereo not drawn) [dicaffeoylsuccinylquinic acid, 3,5-dicaffeoyl-4-succinylquinic acid]", "values": [
      {"measurement": "cytotoxicity (viability and number of viable cells)", "setting": "[1]", "value": "no cytotoxicity was observed"},
      {"measurement": "histamine-release inhibiting activity (FIG. 7)", "setting": "rat fat cells", "value": "exhibited a significantly high activity"}
    ]}
  ]
}
